Test results reported in PMC9611471 (Pharmaceutics, 2022).
One block for each molecule: values may come before it.

Assays:
[1] = In vitro metabolic stability, dog liver microsomes; format: in vitro ADME; settings: pooled liver microsomes, NADPH, 37 °C, 0 and 30 min
[2] = In vitro metabolic stability, rat liver microsomes; format: in vitro ADME; settings: pooled liver microsomes, NADPH, 37 °C, 0 and 30 min
[3] = In vitro metabolic stability, mouse liver microsomes; format: in vitro ADME; settings: pooled liver microsomes, NADPH, 37 °C, 0 and 30 min
[4] = previous studies; cited from earlier work
SK1 [5] = biological target: T1, SK1 (Homo sapiens, UniProt Q9NYA1); set-up: purchased Thermo Fisher Scientific; method as in PMID 32526899; settings: cited from earlier work
T1 sequence (Q9NYA1 whole entry): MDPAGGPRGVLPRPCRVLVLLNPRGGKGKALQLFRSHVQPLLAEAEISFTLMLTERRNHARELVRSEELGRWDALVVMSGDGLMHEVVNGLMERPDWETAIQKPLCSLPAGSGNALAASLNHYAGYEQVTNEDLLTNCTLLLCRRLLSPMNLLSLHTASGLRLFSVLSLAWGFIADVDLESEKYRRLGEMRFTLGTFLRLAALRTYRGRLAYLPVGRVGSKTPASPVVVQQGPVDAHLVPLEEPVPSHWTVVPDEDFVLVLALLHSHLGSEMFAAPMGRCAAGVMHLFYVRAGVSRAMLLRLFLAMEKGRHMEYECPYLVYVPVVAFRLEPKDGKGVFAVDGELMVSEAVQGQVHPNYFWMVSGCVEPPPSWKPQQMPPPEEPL

SK1 [6] = biological target: T1, SK1; set-up: purchased Thermo Fisher Scientific; method as in PMID 32526899; settings: read-out: SK1 inhibitory effect (IC50); cited from earlier work
A549 cells [7] = assay: Colony formation assay; format: cell-based, human; settings: 5 and 10 μM
Method: A549 cells (1 × 10^3 cells/well) were seeded into six-well plates and then each compound was treated at 5 and 10 μM for 12 h. The medium was changed every two days, and the cells were cultured in a fresh medium for 10 days. The obtained colonies were fixed with 25% glutaraldehyde for 20 min and then stained with 0.1% crystal violet for 15 min.

A549 cells [8] = assay: SK1 and SK2 protein (Western blotting) and mRNA (qRT-PCR) levels; format: cell-based, human; settings: 5 and 10 μM, 24 h
Method: (§1) Western blotting measured changes in apoptosis-related proteins (PARP, BAX, BCL-2, Caspase-3). A549 cells (1 × 10^6 cells per well in 6-well plates) were incubated for 24 h. Cells were treated with concentrations of the compounds and incubated for 24 h. Then, cells were dissolved on ice for two hours with a lysis buffer containing a mixture of protease and phosphatase inhibitors. The lysate was centrifuged at 12,000× g for 15 min at 4 °C, and the supernatant was collected. Protein concentrations were measured using a bicinchoninic acid protein assay kit. Total protein was separated by 8–10% sodium dodecyl sulfate–polyacrylamide gel electrophoresis (SDS-PAGE) and transferred onto polyvinylidene fluoride (PVDF) membranes. After being blocked with 5% skim milk, membranes were probed overnight at 4 °C with primary antibodies against SK1, SK2, PARP, BAX, Bcl-2, Caspase-3, and β-actin. Then, the membranes were incubated with subsequent secondary antibodies at room temperature. Then, the protein expressions were measured by Amersham Imager 680 (GE Healthcare, Leiden, WZ, The Netherlands).
RNAs were isolated using the Trizol/chloroform reagent (Invitrogen, Waltham, MA, USA). […] For quantitative analysis of various genes, qRT-PCR was performed using the Bio-Rad CFX384 Touch Real-time PCR detection system (Bio-Rad, Hercules, CA, USA) with SYBR Premix Ex Taq (Takara Bio, Shiga, Japan) for 40 cycles.

A549 cells [9] = assay: Levels of sphingosine, ceramide and S1P (ELISA); format: cell-based, human; settings: 5 and 10 μM
Method: After seeding 1 × 10^6 cells/well into a 6-well plate and incubating for 24 h, the synthetic compounds were treated by concentration. Then, cells were collected and freezing and thawing were repeated three to five times, and centrifuged supernatant was used for testing. The levels of sphingosine, ceramide, and S1P were measured according to the proposed manual using each ELISA kit (Mybiosource, Inc., San Diego, CA, USA).

A549 cells [10] = assay: Annexin V-FITC apoptosis analysis; format: cell-based, human; settings: 24 h
Method: A549 cells (1 × 10^5 cells) were seeded in into a 12-well plate. […] After harvesting the cells, the binding buffer was added and then incubated with annexin-V-FITC and PI at room temperature for 15 min. The stained cells were analyzed with MACS Quant Analyzer 10 Flow Cytometer (Miltenyi Biotec, Bergisch Gladbach, Germany) within 1 h.

A549 cells [11] = assay: Mitochondrial membrane potential measurement (JC-10); format: cell-based, human; settings: 10 μM, 24 h
Method: To access the mechanism of cell death, Mitochondrial Membrane Potential (MMP) was performed using JC-10 cationic dye. […] Cells were collected, and 20 μM JC-10 dye prepared in HBSS solution (0.14 M NaCl, 0.005 M KCl, 0.001 M CaCl2, 0.005 M MgSO4-7H2O, 0.0004 M MgSO4-6H2O, 0.0003 M Na2HPO4-2H2O, 0.0004 M KH2PO4, 0.006 M D-glucose, 0.004 M NaHCO3, 0.002 M HEPES, and 0.02% Pluronic® F-127) was added to the cell for 30 min and mixed. The samples were protected from light and measured by using the MACS Quant Analyzer 10 Flow cytometer.

A549 cells [12] = assay: Western blotting of apoptosis-related proteins; format: cell-based, human; settings: 5 and 10 μM, 24 h
Method: as §1

A549 cells [13] = assay: Cytotoxicity after SK1/SK2 siRNA transfection; format: cell-based, human; settings: A549 cells transfected with siSK1, siSK2; 24 h
Method: Control small interfering RNA (siControl) was obtained from Bioneer (Daejeon, Korea), while SK1 (sc-44114) and SK2 (sc-39225) siRNA (siSK1 and siSK2) were purchased from Santa Cruz Biotechnology (Dallas, TX, USA). Cells were transfected using Lipofectamine RNAiMAX Reagent (Invitrogen, Carlsbad, CA, USA) according to the manufacturer’s instructions. Transfection efficiency was monitored by Western blot. After 24 h of infection, cytotoxicity was measured using infected cells.

SK1 [14] = biological target: T1, SK1; assay: SK1 activity assay (Adapta screening system)
SK2 = biological target: T2, SK2 (Homo sapiens, UniProt Q9NRA0); assay: SK2 activity assay (Adapta screening system); settings: read-out: SK2 inhibitory efficacy
T2 sequence (Q9NRA0 1-654): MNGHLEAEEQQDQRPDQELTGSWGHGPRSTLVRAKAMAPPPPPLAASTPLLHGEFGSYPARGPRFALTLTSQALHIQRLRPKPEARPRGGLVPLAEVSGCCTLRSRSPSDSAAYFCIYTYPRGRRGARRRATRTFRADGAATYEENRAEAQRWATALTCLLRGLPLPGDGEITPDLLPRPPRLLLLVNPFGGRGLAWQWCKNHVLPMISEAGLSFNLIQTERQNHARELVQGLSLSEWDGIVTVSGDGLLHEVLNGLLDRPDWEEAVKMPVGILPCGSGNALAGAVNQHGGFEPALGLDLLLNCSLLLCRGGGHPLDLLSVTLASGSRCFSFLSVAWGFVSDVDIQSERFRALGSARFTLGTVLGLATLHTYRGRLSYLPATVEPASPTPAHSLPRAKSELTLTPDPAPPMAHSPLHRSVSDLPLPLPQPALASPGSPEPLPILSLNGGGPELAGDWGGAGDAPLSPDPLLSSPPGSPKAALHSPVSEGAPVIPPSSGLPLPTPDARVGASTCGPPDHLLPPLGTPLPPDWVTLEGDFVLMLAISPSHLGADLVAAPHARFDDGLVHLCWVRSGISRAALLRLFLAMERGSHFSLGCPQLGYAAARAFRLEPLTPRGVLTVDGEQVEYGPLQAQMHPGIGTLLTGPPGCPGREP

A549 and H1299 cells = assay: Cell proliferation / viability assay (EZ-CYTOX)
[15] = In vitro metabolic stability, human liver microsomes; settings: pooled liver microsomes 0.5 mg/mL, NADPH, 37 °C, 0 and 30 min

- MS DLM [1]: 7.3
- MS RLM [2]: 7.8
- MS MLM [3]: 9.4
Compound: Cc1cc(CS(=O)(=O)c2ccccc2)cc(OCc2ccc(CN3CCC[C@@H]3CO)cc2)c1 [PF-543, reference compound]
- metabolic stability (MS) [4]: poor

Compound: Cc1cc(CN(Cc2cc(C)cc(CS(=O)(=O)c3ccccc3)c2)c2ccc(CCO)cc2)cc(CS(=O)(=O)c2ccccc2)c1 [Compound 7]
- binding affinity for SK1 (Ka) (SK1 [5]): 3.9e+07 M⁻¹
- IC50 (SK1 [6]): 0.14 µM

- MS DLM [1]: 18.6
- MS RLM [2]: 29.1
- MS MLM [3]: 24.6
- inhibition at 10 µM (SK1 [14]; read-out: SK1 inhibitory efficacy): 39%
- inhibition at 10 µM (SK2): 44%
- MS HLM [15]: 18.1
Compound: Cc1cc(CN(Cc2cc(C)cc(CS(=O)(=O)c3ccccc3)c2)c2ccc(CCN3CCC(O)CC3)cc2)cc(CS(=O)(=O)c2ccccc2)c1 [Compound 2, 1-(4-(Bis(3-methyl-5-((phenylsulfonyl)methyl)benzyl)amino)phenethyl)piperidin-4-ol]
- colony formation (A549 cells [7]): reduce colony formation in a concentration-dependent manner
- expression of proteins and mRNAs of SK1 and SK2 (A549 cells [8]): did not affect
- S1P levels (A549 cells [9]): reduced
- ceramide levels (A549 cells [9]): increased
- sphingosine levels (A549 cells [9]): sphingosine expression at a level similar to that of PF-543
- apoptotic effect (annexin-V) (A549 cells [10]; 5 μM): significant effect
- apoptotic effect (annexin-V) (A549 cells [10]; 10 μM): significantly higher apoptotic effect compared to PF-543
- change in mitochondrial membrane potential (MMP), JC-10 (A549 cells [11]): significantly increased compared to that after treatment with PF-543
- levels of PARP, Caspase-3 and cleaved PARP (A549 cells [12]): levels of PARP and Caspase-3 were decreased and cleavage of PARP was increased
- dependence of cytotoxic efficacy on SK1/SK2 (siRNA knockdown) (A549 cells [13]): more dependent on SK1, although SK2 is also partially involved
- selectivity for SK1 (SK1 [14]; SK1 vs SK2, compared to PF-543): lower selectivity for SK1 compared to PF-543
- cytotoxic effects compared with FTY720 (A549 and H1299 cells; 20 and 40 μM, A549 and H1299 cells): cytotoxic effects similar to those of FTY720
- IC50 (A549 and H1299 cells; Homo sapiens, 24 h, read-out: IC50 (cytotoxic effect)): 7.07 µM
